pIC50: −log10 of the molar value. ≈ marks a conversion by molar mass, not a printed value. Read-outs that look alike come from different tables or passages of the source.
Experiments:
M. marinum = type: cell-based, Mycobacterium marinum
M. ulcerans = type: cell-based, Mycobacterium ulcerans
THP-1 cell = assay: Cytotoxicity; type: cell-based
[1] = tested on: most of the clinical strains; assay: MIC, standard broth dilution assay (CLSI), summary for clinical strains; type: cell-based
[2] = tested on: M. ulcerans strains 1059 and 1615; assay: MIC on 7H11 agar plates; type: cell-based; details: Mycobacterium ulcerans, 2 strains (1059 and 1615)
Enterococcus faecalis = assay: MIC, standard broth dilution assay (CLSI); type: cell-based; details: 1 clinical isolate
[3] = Long-term administration study in rats; type: in vivo; details: 10, 30, or 100 mg kg^−1 orally daily for 30 days, male and female rats
[4] = set-up: species or system BALB/c mice; details: mouse, in vivo
Experimental: BALB/c mice were given 2 mg kg^−1 TB47 intravenously or 10 mg kg^−1 orally. […] Footpads and lung tissues were collected at 6, 12, 24, and 48 h post-dose for oral group. After extraction and centrifuge at 4 °C, TB47 concentrations were determined by Liquid Chromatograph-Mass Spectrometer (LC-MS).

[5] = not told
CYP 2D6 = CYP 2D6 (Homo sapiens, UniProt P10635); type: in vitro ADME; details: read-out: CYP Inhibition (IC50)
hERG = hERG (Homo sapiens, UniProt Q12809); assay: hERG inhibition; type: biochemical
CYP 2C19 = CYP 2C19 (Homo sapiens, UniProt P33261); type: in vitro ADME; details: read-out: CYP Inhibition (IC50)
[6] = type: in vitro ADME, Rat
Source text: (§1) Supplement 41467_2019_8464_MOESM1_ESM.docx, table 4: Table 2-3 Metabolic stability | column: T1/2 (min); Clint In Vitro (mL min^-1 gprot^-1); Clint In Vivo Extpl (mL min^-1); Clint Hep In Vivo Extpl (mL min^-1); Stability

Staphylococcus aureus = assay: MIC, standard broth dilution assay (CLSI); type: cell-based; details: 1 clinical isolate
[7] = type: in vitro ADME, Monkey
Source text: as §1

M. smegmatis = assay: microbe, parasite or virus in culture; type: cell-based, Mycobacterium smegmatis
Escherichia coli = assay: MIC, standard broth dilution assay (CLSI); type: cell-based; details: 5 clinical isolates
Candida albicans = assay: MIC, standard broth dilution assay (CLSI); type: cell-based; details: 2 clinical isolates
Klebsiella pneumoniae = assay: MIC, standard broth dilution assay (CLSI); type: cell-based; details: 3 clinical isolates
[8] = type: in vitro ADME, Human
Source text: as §1

Mycobacterium abscessus = assay: MIC, standard broth dilution assay (CLSI); type: cell-based; details: 20 clinical isolates
Acinetobacter baumannii = assay: MIC, standard broth dilution assay (CLSI); type: cell-based; details: 3 clinical isolates
[9] = Oral tolerability in mice; type: in vivo
Salmonella enteriditis = assay: MIC, standard broth dilution assay (CLSI); type: cell-based; details: 1 clinical isolate
Enterococcus faecium = assay: MIC, standard broth dilution assay (CLSI); type: cell-based; details: 1 clinical isolate
Pseudomonas aeruginosa = assay: MIC, standard broth dilution assay (CLSI); type: cell-based; details: 3 clinical isolates
CYP 3A4 = CYP 3A4 (Homo sapiens, UniProt P08684); details: read-out: CYP Inhibition (IC50)
[10] = type: in vitro ADME, Dog
Source text: as §1

[11] = type: in vitro ADME, Mouse
Source text: as §1

M. ulcerans (AlMu) = assay: Time kill assay and CFU-based MBC in liquid culture; type: cell-based, Mycobacterium ulcerans
Experimental: Serial dilutions of drug-containing solutions and autoluminescent mycobacteria broth culture (OD600 of 0.3 to 1.0) were prepared. RLU counts from the same batch of triplicate samples were measured according to the designed time points. Ninety-six-well plates were measured as rendering the amount of light by using a Veritas™ Microplate Luminometer Operating Manual (Turner BioSystems). MIClux was determined as the lowest concentration that can inhibit > 90% RLUs compared with that from the untreated controls[6],[18]. The time-killing curves and MIClux of autoluminescent strains were determined by detecting RLUs from these samples. For M. ulcerans and M. marinum strains, the incubation time for MIClux reading was 7 days and 3 days, respectively. The minimum bactericidal concentration (MBC) was defined as the lowest concentration of drug that killed ≥ 99% of the CFU compared with the CFU count of the initial inoculum used for the liquid activity assays, which was adopted from reference. […] The concentrations used were twofold series of dilutions for this purpose. The incubation time for RLU reading was 14 days for the MBD experiment and the light from each 1.5 mL tube containing total 500 μL culture was detected using Promega GloMax 20/20n. […] The concentrations used were fivefold series of dilutions for this purpose. Each above experiment was performed in triplicate (three independent experiments) or more by independent persons and from three or more independent cultures. The representative results are shown.

CYP 1A2 = CYP 1A2 (Homo sapiens, UniProt P05177); assay: CYP inhibition; type: in vitro ADME
[12] = tested on: Mycobacterium bovis BCG Tice; type: cell-based; details: 1 strain
CYP 2C9 = CYP 2C9 (Homo sapiens, UniProt P11712); assay: CYP inhibition; type: in vitro ADME
Sequence of CYP 2C9 (P11712 whole entry): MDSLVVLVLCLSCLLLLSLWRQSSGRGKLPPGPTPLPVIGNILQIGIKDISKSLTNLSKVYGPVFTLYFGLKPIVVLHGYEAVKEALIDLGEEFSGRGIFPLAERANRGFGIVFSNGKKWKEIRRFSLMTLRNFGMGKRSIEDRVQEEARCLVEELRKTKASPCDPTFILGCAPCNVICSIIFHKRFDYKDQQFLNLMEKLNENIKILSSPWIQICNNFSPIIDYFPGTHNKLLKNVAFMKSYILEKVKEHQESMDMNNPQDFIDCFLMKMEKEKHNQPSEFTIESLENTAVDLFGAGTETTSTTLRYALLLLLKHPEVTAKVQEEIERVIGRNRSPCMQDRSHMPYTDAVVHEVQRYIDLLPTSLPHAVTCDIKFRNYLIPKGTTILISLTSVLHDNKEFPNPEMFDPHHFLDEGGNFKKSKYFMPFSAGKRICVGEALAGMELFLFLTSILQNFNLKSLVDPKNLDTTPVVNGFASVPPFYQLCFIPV

Sequence of CYP 3A4 (P08684 whole entry): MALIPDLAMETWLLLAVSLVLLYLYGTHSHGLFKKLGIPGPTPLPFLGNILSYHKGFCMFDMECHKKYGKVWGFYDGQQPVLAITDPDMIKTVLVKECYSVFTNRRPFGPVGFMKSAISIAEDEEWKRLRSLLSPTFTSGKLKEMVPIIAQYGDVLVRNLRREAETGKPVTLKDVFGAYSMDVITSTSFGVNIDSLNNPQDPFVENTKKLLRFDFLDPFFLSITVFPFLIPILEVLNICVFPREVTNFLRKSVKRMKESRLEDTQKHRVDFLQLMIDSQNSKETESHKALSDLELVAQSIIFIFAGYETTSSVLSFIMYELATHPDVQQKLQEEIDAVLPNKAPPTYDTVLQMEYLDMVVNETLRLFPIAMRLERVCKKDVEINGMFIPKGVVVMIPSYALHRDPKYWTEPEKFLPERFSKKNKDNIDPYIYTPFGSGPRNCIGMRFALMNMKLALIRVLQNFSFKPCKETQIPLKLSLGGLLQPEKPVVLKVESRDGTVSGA
Sequence of CYP 2D6 (P10635 whole entry): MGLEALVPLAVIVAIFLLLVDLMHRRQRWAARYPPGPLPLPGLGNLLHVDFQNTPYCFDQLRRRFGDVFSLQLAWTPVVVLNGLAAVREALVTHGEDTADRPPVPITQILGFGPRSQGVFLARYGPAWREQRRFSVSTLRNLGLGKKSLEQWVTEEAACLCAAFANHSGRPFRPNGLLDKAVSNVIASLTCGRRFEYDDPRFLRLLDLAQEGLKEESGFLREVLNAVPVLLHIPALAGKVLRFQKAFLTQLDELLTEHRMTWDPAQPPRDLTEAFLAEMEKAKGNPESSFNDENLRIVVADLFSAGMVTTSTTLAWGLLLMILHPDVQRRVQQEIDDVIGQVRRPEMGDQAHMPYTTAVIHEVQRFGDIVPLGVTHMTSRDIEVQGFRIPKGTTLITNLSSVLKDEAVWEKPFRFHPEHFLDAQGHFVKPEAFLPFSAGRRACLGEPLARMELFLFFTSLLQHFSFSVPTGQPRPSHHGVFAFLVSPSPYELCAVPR
Sequence of hERG (Q12809 whole entry): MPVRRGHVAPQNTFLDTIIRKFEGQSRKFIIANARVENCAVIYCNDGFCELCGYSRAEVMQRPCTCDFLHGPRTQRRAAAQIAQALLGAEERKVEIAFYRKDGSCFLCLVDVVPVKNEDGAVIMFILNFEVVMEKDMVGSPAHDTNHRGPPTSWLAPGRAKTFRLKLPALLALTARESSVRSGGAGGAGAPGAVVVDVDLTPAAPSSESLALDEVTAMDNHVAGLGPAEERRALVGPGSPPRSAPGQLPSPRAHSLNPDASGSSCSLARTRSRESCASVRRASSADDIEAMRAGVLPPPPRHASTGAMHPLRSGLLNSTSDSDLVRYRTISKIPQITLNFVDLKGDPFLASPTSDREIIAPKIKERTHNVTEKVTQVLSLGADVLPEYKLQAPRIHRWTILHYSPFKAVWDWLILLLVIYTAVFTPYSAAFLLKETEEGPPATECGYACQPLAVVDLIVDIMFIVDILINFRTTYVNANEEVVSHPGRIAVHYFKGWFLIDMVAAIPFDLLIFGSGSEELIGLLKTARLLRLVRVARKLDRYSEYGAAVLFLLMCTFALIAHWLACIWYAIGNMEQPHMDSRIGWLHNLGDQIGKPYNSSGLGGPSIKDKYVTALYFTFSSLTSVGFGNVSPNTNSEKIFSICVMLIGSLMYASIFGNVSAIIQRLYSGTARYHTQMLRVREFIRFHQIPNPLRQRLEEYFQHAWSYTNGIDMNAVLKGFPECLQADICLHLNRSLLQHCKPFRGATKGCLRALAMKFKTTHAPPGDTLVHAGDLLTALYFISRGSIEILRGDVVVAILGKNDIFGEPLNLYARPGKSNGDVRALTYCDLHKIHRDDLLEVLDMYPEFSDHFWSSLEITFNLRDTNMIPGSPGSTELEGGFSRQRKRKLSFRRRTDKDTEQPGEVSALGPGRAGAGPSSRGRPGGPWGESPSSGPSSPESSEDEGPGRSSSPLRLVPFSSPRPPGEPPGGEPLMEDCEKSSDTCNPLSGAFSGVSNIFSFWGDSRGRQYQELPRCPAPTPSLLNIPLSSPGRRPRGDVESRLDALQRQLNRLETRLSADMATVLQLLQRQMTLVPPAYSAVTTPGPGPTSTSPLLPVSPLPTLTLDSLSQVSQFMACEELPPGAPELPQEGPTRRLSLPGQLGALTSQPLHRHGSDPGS
Sequence of CYP 2C19 (P33261 whole entry): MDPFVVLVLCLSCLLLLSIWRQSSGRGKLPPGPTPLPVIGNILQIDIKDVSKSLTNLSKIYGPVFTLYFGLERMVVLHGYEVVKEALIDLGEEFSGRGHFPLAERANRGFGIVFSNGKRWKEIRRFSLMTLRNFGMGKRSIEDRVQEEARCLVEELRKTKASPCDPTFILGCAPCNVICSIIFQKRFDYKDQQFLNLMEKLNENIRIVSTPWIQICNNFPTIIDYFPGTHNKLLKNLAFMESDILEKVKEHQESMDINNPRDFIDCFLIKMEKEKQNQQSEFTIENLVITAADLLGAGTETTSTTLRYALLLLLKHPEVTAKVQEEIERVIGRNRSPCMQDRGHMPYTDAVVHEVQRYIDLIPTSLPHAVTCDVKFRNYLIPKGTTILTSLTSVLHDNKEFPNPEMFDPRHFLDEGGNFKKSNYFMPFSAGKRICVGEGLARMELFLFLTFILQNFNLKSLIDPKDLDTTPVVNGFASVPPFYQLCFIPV
Sequence of CYP 1A2 (P05177 whole entry): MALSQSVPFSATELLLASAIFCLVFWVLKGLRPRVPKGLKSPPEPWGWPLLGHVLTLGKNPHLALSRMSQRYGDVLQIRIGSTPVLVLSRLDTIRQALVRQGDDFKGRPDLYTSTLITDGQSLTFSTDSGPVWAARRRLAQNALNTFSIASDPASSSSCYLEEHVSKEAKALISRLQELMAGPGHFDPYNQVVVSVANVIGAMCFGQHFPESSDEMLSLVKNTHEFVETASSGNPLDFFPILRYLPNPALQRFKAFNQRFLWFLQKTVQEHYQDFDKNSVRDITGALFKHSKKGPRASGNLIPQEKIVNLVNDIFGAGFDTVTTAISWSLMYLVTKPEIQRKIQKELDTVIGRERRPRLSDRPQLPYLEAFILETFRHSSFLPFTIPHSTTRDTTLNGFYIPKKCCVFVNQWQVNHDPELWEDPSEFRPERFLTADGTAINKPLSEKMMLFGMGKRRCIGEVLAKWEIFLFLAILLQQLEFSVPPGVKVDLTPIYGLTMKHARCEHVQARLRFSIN

CO[C@H]1/C=C/O[C@@]2(C)Oc3c(C)c(O)c4c(O)c(c(/C=N/N5CCN(C)CC5)c(O)c4c3C2=O)NC(=O)/C(C)=C\C=C\[C@H](C)[C@H](O)[C@@H](C)[C@@H](O)[C@@H](C)[C@H](OC(C)=O)[C@@H]1C [RIF, rifampin]
MIClux (M. marinum; M. marinum Wild-type (Autoluminescent strain)): 0.25 to 1.0 µg/mL
MIClux (M. marinum; M. marinum Wild-type:: qcrB^WT, over-expression of wild-type qcrB): 0.25 to 1.0 µg/mL
MIClux (M. marinum; M. marinum Wild-type:: vector (empty plasmid)): 0.25 to 1.0 µg/mL
MIClux (M. ulcerans; M. ulcerans Wild-type (AlMu 1059)): 0.06 to 0.25 µg/mL
MIClux (M. ulcerans; M. ulcerans Wild-type:: qcrB^WT, over-expression of wild-type qcrB): 0.06 to 0.25 µg/mL
MIClux (M. ulcerans; M. ulcerans Wild-type:: vector (empty plasmid)): 0.06 to 0.25 µg/mL

COc1ccn2nc(C)c(C(=O)NCc3ccc(N4CCC(c5ccc(OC(F)(F)F)cc5)CC4)cc3)c2c1 [TB47]
pIC50 (THP-1 cell): 4.30
MICs [1]: > 128 µg/mL
MIC [2]: 0.0016 µg/mL (≈ 0.00297 µM)
MIC (Enterococcus faecalis): >128 µg/mL
MIC (M. marinum; Mycobacterium marinum, 1 strain): 0.001 to 0.008 µg/mL
tolerability [3]: well tolerated without any meaningful clinical signs of toxicity
bioavailability [4]: 38.1%
MRT(0-t) ([4]; iv, 2 mg/kg): 14.7 h
MRT(0-∞) ([4]; iv, 2 mg/kg): 22.3 h
t 1/2z ([4]; iv, 2 mg/kg): 17.7 h
MRT(0-t) ([4]; po, 10 mg/kg): 20.2 h
MRT(0-∞) ([4]; po, 10 mg/kg): 52.0 h
t 1/2z ([4]; po, 10 mg/kg): 35.6 h
Conclusion: P-gp substrate [5]: Not P-gp substrate
Conclusion: permeability [5]: High permeability
Efflux Ratio [5]: 1.07
pIC50 (CYP 2D6): < 5.00
pIC50 (hERG): < 4.52
pIC50 (CYP 2C19): < 5.00
Stability [6]: High
Clint Hep In Vivo Extpl ([6]; rat): 5.4 mL/min
Clint In Vitro ([6]; rat): 16.5 mL min^-1 gprot^-1
Clint In Vivo Extpl ([6]; rat): 7.4 mL/min
T1/2 ([6]; rat): 2.13 h
MIC (Staphylococcus aureus): >128 µg/mL
Stability [7]: High
Clint Hep In Vivo Extpl ([7]; monkey): 0.1 mL/min
Clint In Vitro ([7]; monkey): 0.0 mL min^-1 gprot^-1
Clint In Vivo Extpl ([7]; monkey): 0.1 mL/min
T1/2 ([7]; monkey): 1555 h
MIC (M. smegmatis; Mycobacterium smegmatis, 1 strain): 50 µg/mL (≈ 92.8 µM)
MIC (Escherichia coli): >128 µg/mL
MIC (Candida albicans): >128 µg/mL
MIC (Klebsiella pneumoniae): >128 µg/mL
Stability [8]: High
Clint Hep In Vivo Extpl ([8]; human): 0.0 mL/min
Clint In Vitro ([8]; human): 0.0 mL min^-1 gprot^-1
Clint In Vivo Extpl ([8]; human): 0.0 mL/min
T1/2 ([8]; human): Stable
MIC (Mycobacterium abscessus): >128 µg/mL
MIC (Acinetobacter baumannii): >128 µg/mL
tolerability ([9]; oral 200 mg kg^−1 daily for 4 weeks, mice): well tolerated
tolerability ([9]; single oral administration of 2000 mg kg^−1, mice): well tolerated
MIC (Salmonella enteriditis): >128 µg/mL
pIC50 (VERO cell): < 4.00
MIC (Enterococcus faecium): >128 µg/mL
MIC (Pseudomonas aeruginosa): >128 µg/mL
pIC50 (CYP 3A4; 3A4-Midazolam): < 5.00
pIC50 (CYP 3A4; 3A4-Testerone): < 5.00
Stability [10]: High
Clint Hep In Vivo Extpl ([10]; dog): 17.1 mL/min
Clint In Vitro ([10]; dog): 3.5 mL min^-1 gprot^-1
Clint In Vivo Extpl ([10]; dog): 19.0 mL/min
T1/2 ([10]; dog): 9.97 h
Stability [11]: High
Clint Hep In Vivo Extpl ([11]; mouse): 0.8 mL/min
Clint In Vitro ([11]; mouse): 16.5 mL min^-1 gprot^-1
Clint In Vivo Extpl ([11]; mouse): 1.1 mL/min
T1/2 ([11]; mouse): 2.12 h
bactericidal activity compared with 0.2 µg mL^−1 rifampin (M. ulcerans (AlMu); TB47 at 0.008 µg mL^−1 or higher, time kill assay): more potent
minimum bactericidal concentration (MBC) (M. ulcerans (AlMu); killed ≥ 99% of CFU of the initial inoculum): 0.0064 µg/mL (≈ 0.0119 µM)
concentration demonstrating bactericidal activity (M. ulcerans (AlMu); standard time kill assay, AlMu in liquid culture): ≥ 0.0016 µg/mL
pIC50 (CYP 1A2): < 5.00
MIC [12]: 0.003 µg/mL (≈ 0.00557 µM)
pIC50 (CYP 2C9): < 5.00

NNC(=O)c1ccncc1 [isoniazid]
MIC (M. smegmatis; MsmΔcydAB): 4 µg/mL (≈ 29.2 µM)
MIC (M. smegmatis; MsmΔcydAB::cydAB^Mtb): 4 µg/mL (≈ 29.2 µM)
MIC (M. smegmatis; MsmΔcydAB::cydAB^Mu): 4 µg/mL (≈ 29.2 µM)
MIC (M. smegmatis; Mycolicibacterium smegmatis): 4 µg/mL (≈ 29.2 µM)

Reference: article PMC6355801, “The compound TB47 is highly bactericidal against Mycobacterium ulcerans in a Buruli ulcer mouse model” (Nature Communications, 2019)
